The values below come from patent publication US9340532B2, “Methods and compositions for inhibiting CNKSR1” (PHUSIS THERAPEUTICS, INC., priority 2012, dated 2016).

The target of one assay is T1, AKT1 PH-domain (Homo sapiens, UniProt P31749).
T1 construct: The PH-domain His-fusion proteins (CNK1 and AKT1) were expressed and immobilized on a NTA chip; made in house
The experiment in a line: SPR binding assay (Biacore T100), AKT1 PH-domain. Conditions: Table 8; read-out: AKT KD. In a few lines:
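His-tagged AKT1 PH domain immobilized on NTA chip to ≤10,000 RU, Biacore T100. Small-molecule analytes injected at 50 μM to 0.010 μM, 30 μL/min, with 1-5% (v/v) DMSO in samples and running buffer.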

The subject of assay [1] is H226 (KRAS wildtype cell line). The experiment in a line: Proliferation Assay H226. The assay is classed as cell-based. Particulars: Homo sapiens, NCI-H226, n = 1. In a few lines:
(§1)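 Cells plated 2000 per well, allowed 24 h to attach, then exposed 72 h to agents (0-100 μM for isogenic lines; 0.01 to 50 μM for the RPMI 1640/10% FBS-cultured 30-line NSCLC panel). MTS read at 490 nm after 2 h, normalized to no-cell and no-drug controls; IC50 from curve fitting.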

The test system of assay [2] is H1373 (KRAS mutant cell line). The experiment in a line: Proliferation Assay H1373. The assay is classed as cell-based. Particulars: Homo sapiens, NCI-H1373, N = 2 experiments. In a few lines:
as §1

In a further assay the target is T2, CNK1 PH-domain (CNKSR1) (Homo sapiens, UniProt Q969H4).
T2 construct: The PH-domain His-fusion proteins (CNK1 and AKT1) were expressed and immobilized on a NTA chip; made in house
T2 sequence (Q969H4 403-502 limits assumed): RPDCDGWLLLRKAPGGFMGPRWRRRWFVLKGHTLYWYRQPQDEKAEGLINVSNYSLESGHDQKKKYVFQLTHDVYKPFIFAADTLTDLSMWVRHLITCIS
The experiment in a line: SPR binding assay (Biacore T100), CNK1 PH-domain. In a few lines: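 His-tagged CNK1 PH-domain was captured on an NTA chip to ≤10,000 RU. Small-molecule analytes were injected at 50 μM to 0.010 μM at 30 μL/min, with 1-5% (v/v) DMSO in samples and running buffer. Binding was measured by surface plasmon resonance.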

Another assay concerns the target PLE. The experiment in a line: SPR binding, PLE. Particulars: Table 8. As for the experimental part:
A commercially available docking package, GOLD (GOLD [3.2], CCDC: Cambridge, UK, 2007) was used to evaluate the docking of compounds 1-7 into the binding pocket, see e.g. Table 5. Other docking was performed using modeling algorithms with state-of-the-art commercial drug discovery software (Schrodinger suite). GLIDE was chosen as the docking algorithm used to select and optimize compounds, providing a GlideScore as a rough estimate of binding affinity that was used to rank and select the best compounds. Additionally, ligand-based approaches provided an alternative to structure based drug discovery. Ligand-based virtual screening methodologies can take into account shape and electrostatics (like ROCS) and the pharmacophoric features (acceptor, donor, hydrophobic, aromatic, etc.) of its functional groups. Inositol tetraphosphate (IP4) binding to the PH-domain of CNKSR1 provided a good starting point for shape screening. Both structure-based and ligand-based approaches were used to find novel compounds (Table 7) and to refine and improve lead compounds (Tables 8, and 9). SPR interaction analyses for Compounds 1 through 7 were performed with a Biacore 2000, using Biacore2000 Control Software v3.2 and BIAevaluation v4.1 analysis software (Biacore) as described in Mol Cancer Ther 7:2621 (2008). […]

Assay [3] concerns H1975 (KRAS wildtype cell line). The experiment in a line: Proliferation Assay H1975. Particulars: Homo sapiens, NCI-H1975, n = 1. The assay is classed as cell-based. In a few lines:
as §1

Assay [4] concerns A549 (KRAS mutant cell line). The experiment in a line: Proliferation Assay A549. The assay is classed as cell-based. Particulars: Homo sapiens, N = 2 experiments. Put shortly: as §1

T1 sequence (P31749 5-108 limits assumed): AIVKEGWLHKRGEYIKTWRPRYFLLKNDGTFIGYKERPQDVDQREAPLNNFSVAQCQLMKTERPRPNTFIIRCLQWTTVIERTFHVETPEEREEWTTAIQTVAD

With `CCOC(=O)/C=C/c1c(O)c(OC)cc(NS(=O)(=O)c2cccs2)c1SC` [Compound 103, ethyl (2E)-3-[2-hydroxy-3-methoxy-6-(methylsulfanyl)-5-(thiopliene-2-sulfonamido)phenyl]prop-2-enoate], the Kd came out at 330 µM at AKT1 PH-domain; 0.157 µM on CNK1 PH-domain (CNKSR1) (Table 8, read-out: CNK KD); 300 µM at PLE. Also, the IC50 in assay [1] was above 100 µM; in assay [2], above 100 µM; in assay [3], above 100 µM; in assay [4], 75 µM. Moreover, the “Surface Plasmon Resonance CNKSR1 binding (RU max)” value at CNK1 PH-domain (CNKSR1) (date 12 09 13) came out at 2.635 RU * 100/Da. For the same molecule, the “Surface Plasmon Resonance CNKSR1 stability (RU max post-injection)” value at CNK1 PH-domain (CNKSR1) (date 12 09 13) is listed as 3.148 RU * 100/Da.
